Test results published in patent publication US20110230359A1, “LABEL-FREE ON-TARGET PHARMACOLOGY METHODS” (priority 2010, published 2011).

Assays:
GPR109A = assay: modulation profiling DMR assay, marker nicotinic acid, A431 cells; format: cell-based, human; conditions: 10 μM salbutamol pretreatment ~1 hr, 1 μM nicotinic acid
EGFR = assay: modulation profiling DMR assay, marker EGF, A431 cells; format: cell-based, human; conditions: 10 μM salbutamol pretreatment ~1 hr, 32 nM epidermal growth factor

In the case of CC(C)(C)NCC(O)c1ccc(O)c(CO)c1 (centres unmarked) [salbutamol], the “modulation of nicotinic acid DMR (P-DMR)” value (GPR109A) is reported as “potentiates” and the “modulation of EGF DMR (P-DMR and N-DMR)” value (EGFR) is reported as “little impact”.
